# Columns and labels:
# [1] = molecular target: T1, avermitilol synthase (SAV_76) (Streptomyces avermitilis, UniProt Q82RR7); assay: incubation with purified recombinant enzyme, product identification; assay type: biochemical; settings: main product avermitilol
# T1 sequence (Q82RR7 1-335): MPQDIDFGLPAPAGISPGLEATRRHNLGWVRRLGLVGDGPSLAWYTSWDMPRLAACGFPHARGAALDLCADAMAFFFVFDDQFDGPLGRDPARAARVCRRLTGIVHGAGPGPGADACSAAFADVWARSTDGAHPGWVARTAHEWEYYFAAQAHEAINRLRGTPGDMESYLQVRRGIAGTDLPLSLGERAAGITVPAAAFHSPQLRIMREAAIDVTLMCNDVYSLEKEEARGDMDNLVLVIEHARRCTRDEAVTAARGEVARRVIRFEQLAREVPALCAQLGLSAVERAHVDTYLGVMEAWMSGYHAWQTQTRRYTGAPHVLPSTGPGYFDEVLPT
# [2] = molecular target: T2, epi-isozizaene synthase (SCO5222) (Streptomyces coelicolor, UniProt Q9K499); assay: incubation with recombinant enzyme, product identification; assay type: biochemical
# T2 sequence (Q9K499 1-361): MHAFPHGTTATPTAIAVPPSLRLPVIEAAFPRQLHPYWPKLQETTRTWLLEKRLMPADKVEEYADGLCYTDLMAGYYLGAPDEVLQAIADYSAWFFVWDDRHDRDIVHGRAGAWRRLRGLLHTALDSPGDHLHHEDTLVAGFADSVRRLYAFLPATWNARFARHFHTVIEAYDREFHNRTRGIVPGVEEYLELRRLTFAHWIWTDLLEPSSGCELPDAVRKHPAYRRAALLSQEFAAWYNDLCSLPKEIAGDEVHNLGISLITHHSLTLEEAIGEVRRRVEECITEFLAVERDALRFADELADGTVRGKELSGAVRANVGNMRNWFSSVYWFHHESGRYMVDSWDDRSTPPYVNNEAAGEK
# [3] = molecular target: T3, PtlA (SAV_2998), pentalenene synthase (Streptomyces avermitilis, UniProt Q82IY4); assay: as above; assay type: biochemical
# T3 sequence (Q82IY4 1-336): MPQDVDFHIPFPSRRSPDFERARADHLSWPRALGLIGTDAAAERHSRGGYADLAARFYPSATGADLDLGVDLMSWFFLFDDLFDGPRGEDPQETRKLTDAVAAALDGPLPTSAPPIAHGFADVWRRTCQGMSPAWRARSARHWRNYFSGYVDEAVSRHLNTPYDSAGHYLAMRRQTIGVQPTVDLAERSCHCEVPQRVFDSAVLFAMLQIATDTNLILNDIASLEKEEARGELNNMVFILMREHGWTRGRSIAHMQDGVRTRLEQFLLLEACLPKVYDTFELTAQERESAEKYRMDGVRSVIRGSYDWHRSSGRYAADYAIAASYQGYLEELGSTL
# [4] = molecular target: T4, SCO7701 (C-methyltransferase) (Streptomyces coelicolor, UniProt Q9F1Y5); assay: as above; assay type: biochemical
# T4 sequence (Q9F1Y5 1-292): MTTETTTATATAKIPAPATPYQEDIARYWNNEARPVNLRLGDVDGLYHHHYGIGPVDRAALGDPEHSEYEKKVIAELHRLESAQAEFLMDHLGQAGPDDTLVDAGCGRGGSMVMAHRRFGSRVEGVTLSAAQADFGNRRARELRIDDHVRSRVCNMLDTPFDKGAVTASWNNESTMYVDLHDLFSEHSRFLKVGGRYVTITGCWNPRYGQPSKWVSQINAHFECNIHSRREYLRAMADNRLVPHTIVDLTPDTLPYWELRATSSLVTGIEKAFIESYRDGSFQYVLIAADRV
# PtlI (SAV_2999) = PtlI (SAV_2999) (Streptomyces avermitilis, UniProt Q82IY3); settings: oxidation to pentalenal
compound,measurement,setting,value
"CC(C)=CCC/C(C)=C/CC/C(C)=C/COP(=O)(O)OP(=O)(O)O [compound 4, farnesyl diphosphate]","incubation with purified recombinant enzyme, product identification",[1],Incubation of the purified recombinant SAV76 protein with FPP gave a mixture
same,"incubation with recombinant enzyme, product identification",[2],Incubation of the recombinant protein with FPP gave as the major product
same,"incubation with recombinant enzyme, product identification",[3],Incubation of recombinant PtlA with FPP gave pentalenene
C[S+](CC[C@H](N)C(=O)O)C[C@H]1O[C@@H](n2cnc3c(N)ncnc32)[C@H](O)[C@@H]1O (stereo partly drawn) [S-adenosyl-L-methionine],"incubation with recombinant enzyme, product identification","[4]; co-substrate GPP, methyl donor",Incubation of GPP and SAM with recombinant SCO7701 gave exclusively
"CC1=C[C@@H]2CC(C)(C)C[C@@]23[C@H](C)CC[C@@H]13 [compound 6, pentalenene]","expressed enzyme, product identification",PtlI (SAV_2999),cytochrome P450 catalyzing the 3-step oxidation of pentalenene to pentalenal
"CC(C)=CCC/C(C)=C/COP(=O)(O)OP(=O)(O)O [compound 3, geranyl diphosphate]","incubation with recombinant enzyme, product identification","[4]; co-substrate SAM, product 2-MeGPP",Incubation of GPP and SAM with recombinant SCO7701 gave exclusively

# Source: paper PMC3288161 (Accounts of Chemical Research, 2011)
